Here are results for seven compounds from patent US20220340633A1 (Adepthera LLC, priority 2016, published 2022).

“Also recorded” adds a separate entry of the source.

Assay [1] relates to primary human lymphatic endothelia cells (HLEC). As to the kind of experiment: HLEC survival in medium with 0.1% FBS, MTS assay. The note with it: 30, 100, and 300 nM, 72 hrs. For orientation: Formazan colour is commonly taken as a measure of viable cells.
Procedure: The cells were cultured for 72 hrs, and cell viability was assayed with the MTS assay (Promega).
The next assay addresses T1, CLR/RAMP2 receptor (Homo sapiens, UniProt O60895+Q16602).
T1 construct: host or cells: CHO-K1 cells
As to the kind of experiment: CLR/RAMP2 arrestin receptor activation assay (agonist). The assay is classed as cell-based. Conditions: for Emax: CHO-K1, read-out: CLR/RAMP 2 Max Activity % of positive control, CHO-K1 cells, % of positive control (ADM).

For a further assay, the target named is CLR/RAMP1 receptor (Homo sapiens, UniProt O60894+Q16602). As to the kind of experiment: CLR/RAMP1 cAMP receptor activation assay (agonist). In kind it is cell-based. Also noted: host or cells: 1321N1 cells. The note with it: 1321-N1, read-out: CLR/RAMP 1 Max Activity % of positive control, 1321N1 cells; % of positive control (β-CGRP).
Chain of CLR/RAMP1 receptor (Q16602 23-461): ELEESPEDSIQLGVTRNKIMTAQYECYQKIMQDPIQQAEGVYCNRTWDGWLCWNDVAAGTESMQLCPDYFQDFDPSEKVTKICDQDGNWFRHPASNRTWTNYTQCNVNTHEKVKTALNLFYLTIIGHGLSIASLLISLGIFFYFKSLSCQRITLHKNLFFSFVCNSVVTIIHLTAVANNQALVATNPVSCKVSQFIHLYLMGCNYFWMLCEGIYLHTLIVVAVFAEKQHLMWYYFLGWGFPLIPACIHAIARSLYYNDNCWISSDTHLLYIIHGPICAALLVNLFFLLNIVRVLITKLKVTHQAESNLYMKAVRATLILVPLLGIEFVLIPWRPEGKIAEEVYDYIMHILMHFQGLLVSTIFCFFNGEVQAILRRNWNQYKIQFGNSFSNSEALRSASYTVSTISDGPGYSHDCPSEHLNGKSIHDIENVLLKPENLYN
Chain of CLR/RAMP1 receptor (O60894 27-148): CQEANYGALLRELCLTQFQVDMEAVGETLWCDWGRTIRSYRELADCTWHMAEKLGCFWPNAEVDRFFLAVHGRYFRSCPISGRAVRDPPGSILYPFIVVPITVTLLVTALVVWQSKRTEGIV

T1 sequence (Q16602 23-461): as the sequence (Q16602 23-461) above
T1 sequence (O60895 43-175): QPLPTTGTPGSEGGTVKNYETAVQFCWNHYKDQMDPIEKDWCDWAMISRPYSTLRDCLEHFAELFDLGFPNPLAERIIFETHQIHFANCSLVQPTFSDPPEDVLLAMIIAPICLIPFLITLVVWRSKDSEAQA
Procedure for CLR/RAMP2 receptor: Using a receptor activation assay, the dose-dependent stimulatory response of peptide agonists of the present invention on a CLR/RAMP1 receptor, a CLR/RAMP2, or a CLR/RAMP3 receptor complex was determined. A cell line carrying the recombinant CLR/RAMP1, CLR/RAMP2, or a CLR/RAMP3 receptor was employed in the assay. Peptide agonist activities were tested, in duplicate, at 10 different concentrations, starting with 1.0 μM and serially diluted 3-fold, in DMSO. […] The CLR/RAMP1 cAMP, CLR/RAMP2 arrestin assays, and CLR/RAMP3 cAMP (DiscoveRx, Fremont, Calif.) were used.

As for `CCCCCCCCCCCCCCCC(=O)N[C@@H](CCCCN)C(=O)NCC(=O)N[C@H]1CSSC[C@@H](C(=O)N[C@H](C(=O)N[C@H](C(=O)N[C@@H](CCC(N)=O)C(=O)N[C@@H](CCCCN)C(=O)N[C@@H](CC(C)C)C(=O)N[C@@H](C)C(=O)N[C@@H](Cc2c[nH]cn2)C(=O)N[C@@H](CCC(N)=O)C(=O)N[C@H](C(=O)N[C@@H](Cc2ccc(O)cc2)C(=O)N[C@@H](CCC(N)=O)C(=O)N[C@@H](Cc2ccccc2)C(=O)N[C@H](C(=O)N[C@@H](CC(=O)O)C(=O)N[C@@H](CCCCN)C(=O)N[C@@H](CC(=O)O)C(=O)N[C@@H](CCCCN)C(=O)N[C@@H](CC(=O)O)C(=O)N[C@@H](CC(N)=O)C(=O)N[C@@H](CO)C(=O)N[C@@H](C)C(=O)N2CCC[C@H]2C(=O)N[C@H](C(=O)N[C@@H](CC(=O)O)C(=O)N2CCC[C@H]2C(=O)N[C@@H](CO)C(=O)N[C@@H](CO)C(=O)N2CCC[C@H]2C(=O)N[C@@H](Cc2c[nH]cn2)C(=O)N[C@@H](CO)C(=O)N[C@@H](Cc2ccc(O)cc2)C(N)=O)C(C)C)[C@@H](C)O)[C@@H](C)CC)C(C)C)[C@@H](C)O)NC(=O)[C@H]([C@@H](C)O)NC(=O)CNC(=O)[C@H](Cc2ccccc2)NC(=O)[C@H](CCCNC(=N)N)NC1=O` [SEQ ID NO: 30], the “HLEC survival (in words)” value in assay [1] is reported as “dose-dependently stimulated; also recorded: significantly promote”. On the same count and under the same terms, for `CCCCCCCCCCCCCCCC(=O)NCCCC[C@H](NC(C)=O)C(=O)NCC(=O)N[C@H]1CSSC[C@@H](C(=O)N[C@H](C(=O)N[C@H](C(=O)N[C@@H](CCC(N)=O)C(=O)N[C@@H](CCCCN)C(=O)N[C@@H](CC(C)C)C(=O)N[C@@H](C)C(=O)N[C@@H](Cc2c[nH]cn2)C(=O)N[C@@H](CCC(N)=O)C(=O)N[C@H](C(=O)N[C@@H](Cc2ccc(O)cc2)C(=O)N[C@@H](CCC(N)=O)C(=O)N[C@@H](Cc2ccccc2)C(=O)N[C@H](C(=O)N2CCC[C@H]2C(=O)N[C@@H](C)C(=O)NCC(=O)N[C@@H](CCCNC(=N)N)C(=O)N[C@@H](CCC(N)=O)C(=O)N[C@@H](CC(=O)O)C(=O)N[C@@H](CO)C(=O)N[C@@H](C)C(=O)N2CCC[C@H]2C(=O)N[C@H](C(=O)N[C@@H](CC(=O)O)C(=O)N2CCC[C@H]2C(=O)N[C@@H](CO)C(=O)N[C@@H](CO)C(=O)N2CCC[C@H]2C(=O)N[C@@H](Cc2c[nH]cn2)C(=O)N[C@@H](CO)C(=O)N[C@@H](Cc2ccc(O)cc2)C(N)=O)C(C)C)[C@@H](C)O)[C@@H](C)CC)C(C)C)[C@@H](C)O)NC(=O)[C@H]([C@@H](C)O)NC(=O)CNC(=O)[C@H](Cc2ccccc2)NC(=O)[C@H](CCCNC(=N)N)NC1=O` [SEQ ID NO: 33] the value was “dose-dependently stimulated; also recorded: significantly promote”; for `CCCCCCCCCCCCCCCC(=O)N[C@@H](CCCCN)C(=O)N[C@H](C(=O)N[C@@H](CCCCN)C(=O)N[C@@H](CCCCN)C(=O)N[C@H](C(=O)N[C@@H](CC(C)C)C(=O)N[C@@H](CCCNC(=N)N)C(=O)N[C@H](C(=O)NCC(=O)N[C@H]1CSSC[C@@H](C(=O)N[C@H](C(=O)N[C@H](C(=O)N[C@@H](CCC(N)=O)C(=O)N[C@@H](CCCCN)C(=O)N[C@@H](CC(C)C)C(=O)N[C@@H](C)C(=O)N[C@@H](Cc2c[nH]cn2)C(=O)N[C@@H](CCC(N)=O)C(=O)N[C@H](C(=O)N[C@@H](Cc2ccc(O)cc2)C(=O)N[C@@H](CCC(N)=O)C(=O)N[C@@H](Cc2ccccc2)C(=O)N[C@H](C(=O)N[C@@H](CC(=O)O)C(=O)N[C@@H](CCCCN)C(=O)N[C@@H](CC(=O)O)C(=O)N[C@@H](CCCCN)C(=O)N[C@@H](CC(=O)O)C(=O)N[C@@H](CC(N)=O)C(=O)N[C@@H](CO)C(=O)N[C@@H](C)C(=O)N2CCC[C@H]2C(=O)N[C@H](C(=O)N[C@@H](CC(=O)O)C(=O)N2CCC[C@H]2C(=O)N[C@@H](CO)C(=O)N[C@@H](CO)C(=O)N2CCC[C@H]2C(=O)N[C@@H](Cc2c[nH]cn2)C(=O)N[C@@H](CO)C(=O)N[C@@H](Cc2ccc(O)cc2)C(N)=O)C(C)C)[C@@H](C)O)[C@@H](C)CC)C(C)C)[C@@H](C)O)NC(=O)[C@H]([C@@H](C)O)NC(=O)CNC(=O)[C@H](Cc2ccccc2)NC(=O)[C@H](CCCNC(=N)N)NC1=O)[C@@H](C)O)[C@@H](C)O)[C@@H](C)O` [SEQ ID NO: 38], “dose-dependently stimulated; also recorded: significantly promote”; for `CCCCCCCCCCCCCCCC(=O)NCCCC[C@H](NC(=O)[C@@H](NC(C)=O)[C@@H](C)O)C(=O)N[C@@H](CCCCN)C(=O)N[C@H](C(=O)N[C@@H](CC(C)C)C(=O)N[C@@H](CCCNC(=N)N)C(=O)N[C@H](C(=O)NCC(=O)N[C@H]1CSSC[C@@H](C(=O)N[C@H](C(=O)N[C@H](C(=O)N[C@@H](CCC(N)=O)C(=O)N[C@@H](CCCCN)C(=O)N[C@@H](CC(C)C)C(=O)N[C@@H](C)C(=O)N[C@@H](Cc2c[nH]cn2)C(=O)N[C@@H](CCC(N)=O)C(=O)N[C@H](C(=O)N[C@@H](Cc2ccc(O)cc2)C(=O)N[C@@H](CCC(N)=O)C(=O)N[C@@H](Cc2ccccc2)C(=O)N[C@H](C(=O)N[C@@H](CC(=O)O)C(=O)N[C@@H](CCCCN)C(=O)N[C@@H](CC(=O)O)C(=O)N[C@@H](CCCCN)C(=O)N[C@@H](CC(=O)O)C(=O)N[C@@H](CC(N)=O)C(=O)N[C@@H](CO)C(=O)N[C@@H](C)C(=O)N2CCC[C@H]2C(=O)N[C@H](C(=O)N[C@@H](CC(=O)O)C(=O)N2CCC[C@H]2C(=O)N[C@@H](CO)C(=O)N[C@@H](CO)C(=O)N2CCC[C@H]2C(=O)N[C@@H](Cc2c[nH]cn2)C(=O)N[C@@H](CO)C(=O)N[C@@H](Cc2ccc(O)cc2)C(N)=O)C(C)C)[C@@H](C)O)[C@@H](C)CC)C(C)C)[C@@H](C)O)NC(=O)[C@H]([C@@H](C)O)NC(=O)CNC(=O)[C@H](Cc2ccccc2)NC(=O)[C@H](CCCNC(=N)N)NC1=O)[C@@H](C)O)[C@@H](C)O` [SEQ ID NO: 39], “dose-dependently stimulated; also recorded: significantly promote”. Turning to `CCCCCCCCCCCCCCCC(=O)N[C@@H](CCCCN)C(=O)N[C@H](C(=O)N[C@@H](CCCCN)C(=O)N[C@@H](CCCCN)C(=O)N[C@H](C(=O)N[C@@H](CC(C)C)C(=O)N[C@@H](CCCNC(=N)N)C(=O)N[C@H](C(=O)NCC(=O)N[C@H]1CSSC[C@@H](C(=O)N[C@H](C(=O)N[C@H](C(=O)N[C@@H](CCC(N)=O)C(=O)N[C@@H](CCCCN)C(=O)N[C@@H](CC(C)C)C(=O)N[C@@H](C)C(=O)N[C@@H](Cc2c[nH]cn2)C(=O)N[C@@H](CCC(N)=O)C(=O)N[C@H](C(=O)N[C@@H](Cc2ccc(O)cc2)C(=O)N[C@@H](CCC(N)=O)C(=O)N[C@@H](Cc2ccccc2)C(=O)N[C@H](C(=O)N[C@@H](CC(=O)O)C(=O)N[C@@H](CCCCN)C(=O)N[C@@H](CC(=O)O)C(=O)N[C@@H](CCCCN)C(=O)N[C@@H](CC(=O)O)C(=O)N[C@@H](CC(N)=O)C(=O)N[C@H](C(=O)N[C@@H](C)C(=O)N2CCC[C@H]2C(=O)N[C@H](C(=O)N[C@@H](CC(=O)O)C(=O)N2CCC[C@H]2C(=O)N[C@@H](CO)C(=O)N[C@@H](CO)C(=O)N2CCC[C@H]2C(=O)N[C@@H](Cc2c[nH]cn2)C(=O)N[C@@H](CO)C(=O)N[C@@H](Cc2ccc(O)cc2)C(N)=O)C(C)C)C(C)C)[C@@H](C)O)[C@@H](C)CC)C(C)C)[C@@H](C)O)NC(=O)[C@H]([C@@H](C)O)NC(=O)CNC(=O)[C@H](Cc2ccccc2)NC(=O)[C@H](CCCNC(=N)N)NC1=O)[C@@H](C)O)[C@@H](C)O)[C@@H](C)O` [SEQ ID NO: 40], the “HLEC survival (in words)” value in assay [1] is “dose-dependently stimulated; also recorded: significantly promote”. `CCCCCCCCCCCCCCCC(=O)NCCCC[C@H](NC(=O)COCCOCCN)C(=O)NCC(=O)N[C@H]1CSSC[C@@H](C(=O)N[C@H](C(=O)N[C@H](C(=O)N[C@@H](CCC(N)=O)C(=O)N[C@@H](CCCCN)C(=O)N[C@@H](CC(C)C)C(=O)N[C@@H](C)C(=O)N[C@@H](Cc2c[nH]cn2)C(=O)N[C@@H](CCC(N)=O)C(=O)N[C@H](C(=O)N[C@@H](Cc2ccc(O)cc2)C(=O)N[C@@H](CCC(N)=O)C(=O)N[C@@H](Cc2ccccc2)C(=O)N[C@H](C(=O)N[C@@H](CC(=O)O)C(=O)N[C@@H](CCCCN)C(=O)N[C@@H](CC(=O)O)C(=O)N[C@@H](CCCCN)C(=O)N[C@@H](CC(=O)O)C(=O)N[C@@H](CC(N)=O)C(=O)N[C@H](C(=O)N[C@@H](C)C(=O)N2CCC[C@H]2C(=O)N[C@@H](CCCNC(=N)N)C(=O)N[C@@H](CO)C(=O)N[C@@H](CCCCN)C(=O)N[C@@H](CO)C(=O)N[C@@H](CO)C(=O)N2CCC[C@H]2C(=O)N[C@@H](Cc2c[nH]cn2)C(=O)N[C@@H](CO)C(=O)N[C@@H](Cc2ccc(O)cc2)C(N)=O)C(C)C)[C@@H](C)O)[C@@H](C)CC)C(C)C)[C@@H](C)O)NC(=O)[C@H]([C@@H](C)O)NC(=O)CNC(=O)[C@H](Cc2ccccc2)NC(=O)[C@H](CCCNC(=N)N)NC1=O` [SEQ ID NO: 61]: the Emax on CLR/RAMP2 receptor came out at 92%; on CLR/RAMP1 receptor it was 70%. On to `CCCCCCCCCCCCCCCC(=O)NCCCC[C@H](NC(=O)COCCOCCN)C(=O)NCC(=O)N[C@H]1CSSC[C@@H](C(=O)N[C@H](C(=O)N[C@H](C(=O)N[C@@H](CCC(N)=O)C(=O)N[C@@H](CCCCN)C(=O)N[C@@H](CC(C)C)C(=O)N[C@@H](C)C(=O)N[C@@H](Cc2c[nH]cn2)C(=O)N[C@@H](CCC(N)=O)C(=O)N[C@H](C(=O)N[C@@H](Cc2ccc(O)cc2)C(=O)N[C@@H](CCC(N)=O)C(=O)N[C@@H](Cc2ccccc2)C(=O)N[C@H](C(=O)N[C@@H](CC(=O)O)C(=O)N[C@@H](CCCCN)C(=O)N[C@@H](CC(=O)O)C(=O)N[C@@H](CCCCN)C(=O)N[C@@H](CC(=O)O)C(=O)N[C@@H](CC(N)=O)C(=O)N[C@H](C(=O)N[C@@H](CC(=O)O)C(=O)N2CCC[C@H]2C(=O)N[C@@H](CO)C(=O)N[C@@H](CO)C(=O)N2CCC[C@H]2C(=O)N[C@@H](Cc2c[nH]cn2)C(=O)N[C@@H](CO)C(=O)N[C@@H](Cc2ccc(O)cc2)C(N)=O)C(C)C)[C@@H](C)O)[C@@H](C)CC)C(C)C)[C@@H](C)O)NC(=O)[C@H]([C@@H](C)O)NC(=O)CNC(=O)[C@H](Cc2ccccc2)NC(=O)[C@H](CCCNC(=N)N)NC1=O` [SEQ ID NO: 94], for which the Emax came out at 82% on CLR/RAMP2 receptor and 67% at CLR/RAMP1 receptor. Moreover, the “receptor specificity of agonist” value at CLR/RAMP2 receptor (CLR/RAMP2 versus CLR/RAMP1) is reported as “CLR/RAMP2-specific”.
